We go through three molecules from PMC4317927 (Cancer Science, 2014).

In one data set the target is T1, NF-κB (p50) (Homo sapiens, UniProt P19838).
T1 sequence (P19838 1-433 limits assumed): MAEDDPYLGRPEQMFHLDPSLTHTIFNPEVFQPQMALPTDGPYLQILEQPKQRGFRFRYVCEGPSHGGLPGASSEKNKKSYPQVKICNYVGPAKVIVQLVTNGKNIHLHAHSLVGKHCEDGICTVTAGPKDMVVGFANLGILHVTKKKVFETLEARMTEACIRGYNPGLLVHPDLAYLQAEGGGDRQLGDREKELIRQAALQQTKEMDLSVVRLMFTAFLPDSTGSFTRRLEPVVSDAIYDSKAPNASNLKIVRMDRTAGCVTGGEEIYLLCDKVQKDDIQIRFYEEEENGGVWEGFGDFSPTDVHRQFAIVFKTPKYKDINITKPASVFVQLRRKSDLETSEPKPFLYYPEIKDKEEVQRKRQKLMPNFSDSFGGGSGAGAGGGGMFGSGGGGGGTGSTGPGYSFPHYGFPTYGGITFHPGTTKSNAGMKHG
The data set can be described thus: DSE-FRET DNA-binding.

A further data set deals with T2, NF-κB (p52) (Homo sapiens, UniProt Q00653).
T2 sequence (Q00653 1-454 limits assumed): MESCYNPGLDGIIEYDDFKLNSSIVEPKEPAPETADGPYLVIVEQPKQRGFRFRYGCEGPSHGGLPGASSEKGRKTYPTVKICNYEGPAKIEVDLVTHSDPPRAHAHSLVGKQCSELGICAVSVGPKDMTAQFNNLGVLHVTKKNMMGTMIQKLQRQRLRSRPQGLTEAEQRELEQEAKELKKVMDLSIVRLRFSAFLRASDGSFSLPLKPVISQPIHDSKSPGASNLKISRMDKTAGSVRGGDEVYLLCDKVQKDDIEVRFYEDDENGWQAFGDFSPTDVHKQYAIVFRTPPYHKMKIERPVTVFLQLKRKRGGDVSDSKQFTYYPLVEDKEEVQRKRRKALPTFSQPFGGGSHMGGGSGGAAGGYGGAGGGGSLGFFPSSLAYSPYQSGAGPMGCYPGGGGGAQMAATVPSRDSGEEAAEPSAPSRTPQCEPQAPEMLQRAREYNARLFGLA
The data set can be described thus: DSE-FRET DNA-binding.

A further data set concerns the target GST-NF-kB p50 (human, UniProt P19838 1-433). The data set can be described thus: DSE-FRET.

On to `Cc1cc(-c2ccc(/N=N/c3ccc4c(S(=O)(=O)O)cc(S(=O)(=O)O)c(N)c4c3O)c(C)c2)ccc1/N=N/c1ccc2c(S(=O)(=O)O)cc(S(=O)(=O)O)c(N)c2c1O` [EB, Evans Blue], for which the IC50 (as a rule, the concentration that inhibits the measured activity by half) on NF-κB (p50) turned out to be 12.9 µM; on NF-κB (p52), 12.8 µM.

As to `O=C(NC1=CC(=O)[C@H]2O[C@H]2[C@H]1O)c1ccccc1O` [(−)-DHMEQ], the values for the IC50 at NF-κB (p50) and on NF-κB (p52) were 8.8 µM and 62.5 µM, respectively.

B1: NF-D1 (NF-01F/NF-14D) (dsDNA)
DNA 1: AGTTGAGGGGACTTTCCCAGGCGACTCACTATAGGCGGTGTCTCGCTCGC
DNA 2: GGGAATGGTGTGGTGCCTATAGTGAGTCGCCTGGGAAAGTCCCCTCAACT
As for B1, the “apparent K (half saturation)” value with GST-NF-kB p50 was around 40 nM.
